Data published in patent US9695155B2, “Herbicidal substituted pyrimidinyloxy benzene compounds” (E. I. DU PONT DE NEMOURS AND COMPANY, priority 2013, dated 2017).

Key:
[1] = test system: velvetleaf; experiment: Test C preemergence; format: in vivo, Abutilon theophrasti; conditions: Abutilon theophrasti, pre-emergence
Summary of the method: (§1)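 Rated visually on 0–100 (100 = complete control) after 13–15 days under glass. Treatments went onto freshly seeded loam/sand soil or onto emerged plants at the 1- to 4-leaf stage, using a surfactant-containing solvent formulation.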

[2] = test system: wild oat; experiment: Test C postemergence; format: in vivo, Avena fatua; conditions: Avena fatua, post-emergence
Summary of the method: as §1

[3] = test system: barnyardgrass; experiment: Test C postemergence; format: in vivo, Echinochloa crus-galli; conditions: Echinochloa crus-galli, post-emergence
Summary of the method: as §1

[4] = test system: ragweed; experiment: Test C postemergence; format: in vivo, Ambrosia elatior; conditions: Ambrosia artemisiifolia, post-emergence
Summary of the method: as §1

[5] = test system: Italian ryegrass; experiment: Test C preemergence; format: in vivo, Lolium multiflorum; conditions: Lolium multiflorum, pre-emergence
Summary of the method: as §1

[6] = test system: soybean; experiment: Test C preemergence; format: in vivo, Glycine max; conditions: Glycine max, pre-emergence
Summary of the method: as §1

[7] = test system: corn; experiment: Test A preemergence; format: in vivo, Zea mays; conditions: Zea mays, pre-emergence, 240 h
Summary of the method: (§2)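 Greenhouse pot test, loam/sand soil. Formulation: non-phytotoxic solvent mix plus surfactant. Pre: directed spray onto soil after sowing. Post: plants at 1–2 leaf, 2–10 cm. Rated visually vs untreated controls at ~10 d, 0 (no effect) to 100 (complete control).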

[8] = test system: waterhemp; experiment: Test C postemergence; format: in vivo, Amaranthus rudis; conditions: Amaranthus tuberculatus, post-emergence
Summary of the method: as §1

[9] = test system: galium; experiment: Test C postemergence; format: in vivo, Galium aparine; conditions: Galium, post-emergence
Summary of the method: as §1

[10] = test system: corn; experiment: Test A postemergence; format: in vivo, Zea mays; conditions: Zea mays, post-emergence, 240 h
Summary of the method: as §2

[11] = test system: morningglory; experiment: Test C preemergence; format: in vivo, Ipomoea coccinea; conditions: Ipomoea, pre-emergence
Summary of the method: as §1

[12] = test system: wheat, winter; experiment: Test C postemergence; format: in vivo, Triticum aestivum; conditions: Triticum aestivum, post-emergence
Summary of the method: as §1

[13] = test system: barnyardgrass; experiment: Test A postemergence; format: in vivo, Echinochloa crus-galli; conditions: Echinochloa crus-galli, post-emergence, 240 h
Summary of the method: as §2

[14] = test system: yellow nutsedge; experiment: Test C postemergence; format: in vivo, Cyperus esculentus; conditions: Cyperus, post-emergence
Summary of the method: as §1

[15] = test system: wheat, winter; experiment: Test C preemergence; format: in vivo, Triticum aestivum; conditions: Triticum aestivum, pre-emergence
Summary of the method: as §1

[16] = 125 g ai/ha, 0 to 100 scale where 0 is no effect and 100 is complete control

For `N#Cc1cccc(Oc2ncc(F)cn2)c1-n1cc(C(F)(F)F)cn1` [Compound 79, 3-[(5-fluoro-2-pyrimidinyl)oxy]-2-[4-(trifluoromethyl)-1H-pyrazol-1-yl]benzonitrile], the pest or weed control at 62 g/ha ([1]; 62 g ai/ha, preemergence, scale 0 (no effect) to 100 (complete control), read-out: Velvetleaf plant response rating) was 100%, the pest or weed control at 125 g/ha ([1]; 125 g ai/ha, preemergence, scale 0 (no effect) to 100 (complete control), read-out: Velvetleaf plant response rating) was 100% and the pest or weed control at 250 g/ha ([1]; 250 g ai/ha, preemergence, scale 0 (no effect) to 100 (complete control), read-out: Velvetleaf plant response rating) was 100%. For the same compound, the pest or weed control at 31 g/ha ([1]; Preemergence, 31 g ai/ha, scale 0 to 100, 0 no effect, 100 complete control, read-out: Plant response rating, Velvetleaf) was 90%, the pest or weed control at 125 g/ha ([2]; 125 g ai/ha, postemergence, read-out: Plant response rating (0 to 100), Oat, Wild) was 20% and the pest or weed control at 250 g/ha ([2]; 250 g ai/ha, postemergence, read-out: Plant response rating (0 to 100), Oat, Wild) was 50%. The pest or weed control at 31 g/ha ([2]; Postemergence, 31 g ai/ha, scale 0 to 100 (0 no effect, 100 complete control), 13 to 15 days, read-out: Plant response rating, Oat, Wild) was 10%, the pest or weed control at 62 g/ha ([2]; Postemergence, 62 g ai/ha, scale 0 to 100 (0 no effect, 100 complete control), read-out: Plant response rating, Oat, Wild) was 15% and the pest or weed control at 125 g/ha ([3]; 125 g ai/ha, postemergence, read-out: Plant response rating (0 to 100), Barnyardgrass) was 20%. For the same compound, the pest or weed control at 250 g/ha ([3]; 250 g ai/ha, postemergence, read-out: Plant response rating (0 to 100), Barnyardgrass) was 75%, the pest or weed control at 31 g/ha ([3]; Postemergence, 31 g ai/ha, scale 0 to 100 (0 no effect, 100 complete control), 13 to 15 days, read-out: Plant response rating, Barnyardgrass) was 5% and the pest or weed control at 62 g/ha ([3]; Postemergence, 62 g ai/ha, scale 0 to 100 (0 no effect, 100 complete control), read-out: Plant response rating, Barnyardgrass) was 5%. It also gave a pest or weed control at 125 g/ha ([4]; 125 g ai/ha, postemergence, read-out: Plant response rating (0 to 100), Ragweed) of 70%, a pest or weed control at 250 g/ha ([4]; 250 g ai/ha, postemergence, read-out: Plant response rating (0 to 100), Ragweed) of 85% and a pest or weed control at 31 g/ha ([4]; Postemergence, 31 g ai/ha, scale 0 to 100 (0 no effect, 100 complete control), 13 to 15 days, read-out: Plant response rating, Ragweed) of 55%. For the same compound, the pest or weed control at 62 g/ha ([4]; Postemergence, 62 g ai/ha, scale 0 to 100 (0 no effect, 100 complete control), read-out: Plant response rating, Ragweed) was 70%, the pest or weed control at 62 g/ha ([5]; 62 g ai/ha, preemergence, scale 0 (no effect) to 100 (complete control), read-out: Ryegrass, Italian plant response rating) was 90% and the pest or weed control at 125 g/ha ([5]; 125 g ai/ha, preemergence, scale 0 (no effect) to 100 (complete control), read-out: Ryegrass, Italian plant response rating) was 90%. For the same compound, the pest or weed control at 250 g/ha ([5]; 250 g ai/ha, preemergence, scale 0 (no effect) to 100 (complete control), read-out: Ryegrass, Italian plant response rating) was 90%, the pest or weed control at 31 g/ha ([5]; Preemergence, 31 g ai/ha, scale 0 to 100, 0 no effect, 100 complete control, read-out: Plant response rating, Ryegrass, Italian) was 40% and the plant injury at 62 g/ha ([6]; 62 g ai/ha, preemergence, scale 0 (no effect) to 100 (complete control), read-out: Soybean plant response rating) was 75%. It also gave a plant injury at 125 g/ha ([6]; 125 g ai/ha, preemergence, scale 0 (no effect) to 100 (complete control), read-out: Soybean plant response rating) of 90%, a plant injury at 250 g/ha ([6]; 250 g ai/ha, preemergence, scale 0 (no effect) to 100 (complete control), read-out: Soybean plant response rating) of 95% and a plant injury at 31 g/ha ([6]; Preemergence, 31 g ai/ha, scale 0 to 100, 0 no effect, 100 complete control, read-out: Plant response rating, Soybean) of 75%. For the same compound, the Corn plant response rating (crop injury, 0 = no effect, 100 = complete kill) at 125 g/ha [7, 16] was 80%, the plant injury at 500 g/ha ([7]; 500 g ai/ha, 0 to 100 scale, 0 no effect, 100 complete control, approx. 10 days, read-out: Corn plant response rating) was 100% and the pest or weed control at 125 g/ha ([8]; 125 g ai/ha, postemergence, read-out: Plant response rating (0 to 100), Waterhemp) was 90%. For the same compound, the pest or weed control at 250 g/ha ([8]; 250 g ai/ha, postemergence, read-out: Plant response rating (0 to 100), Waterhemp) was 100%, the pest or weed control at 31 g/ha ([8]; Postemergence, 31 g ai/ha, scale 0 to 100 (0 no effect, 100 complete control), 13 to 15 days, read-out: Plant response rating, Waterhemp) was 75% and the pest or weed control at 62 g/ha ([8]; Postemergence, 62 g ai/ha, scale 0 to 100 (0 no effect, 100 complete control), read-out: Plant response rating, Waterhemp) was 80%. For the same compound, the pest or weed control at 125 g/ha ([9]; 125 g ai/ha, postemergence, read-out: Plant response rating (0 to 100), Galium) was 80%, the pest or weed control at 250 g/ha ([9]; 250 g ai/ha, postemergence, read-out: Plant response rating (0 to 100), Galium) was 95% and the pest or weed control at 31 g/ha ([9]; Postemergence, 31 g ai/ha, scale 0 to 100 (0 no effect, 100 complete control), 13 to 15 days, read-out: Plant response rating, Galium) was 65%. The pest or weed control at 62 g/ha ([9]; Postemergence, 62 g ai/ha, scale 0 to 100 (0 no effect, 100 complete control), read-out: Plant response rating, Galium) was 75%, the Corn plant response rating (crop injury, 0 = no effect, 100 = complete kill) at 125 g/ha [10, 16] was 80% and the plant injury at 500 g/ha ([10]; 500 g ai/ha, 0 to 100 scale, 0 no effect, 100 complete control, read-out: Plant response rating Corn) was 100%. The pest or weed control at 62 g/ha ([11]; 62 g ai/ha, preemergence, scale 0 (no effect) to 100 (complete control), read-out: Morningglory plant response rating) was 100%, the pest or weed control at 125 g/ha ([11]; 125 g ai/ha, preemergence, scale 0 (no effect) to 100 (complete control), read-out: Morningglory plant response rating) was 100% and the pest or weed control at 250 g/ha ([11]; 250 g ai/ha, preemergence, scale 0 (no effect) to 100 (complete control), read-out: Morningglory plant response rating) was 100%. It also gave a pest or weed control at 31 g/ha ([11]; Preemergence, 31 g ai/ha, scale 0 to 100, 0 no effect, 100 complete control, read-out: Plant response rating, Morningglory) of 95%, a plant injury at 125 g/ha ([12]; 125 g ai/ha, postemergence, read-out: Plant response rating (0 to 100), Wheat) of 5% and a plant injury at 250 g/ha ([12]; 250 g ai/ha, postemergence, read-out: Plant response rating (0 to 100), Wheat) of 35%. The plant injury at 31 g/ha ([12]; Postemergence, 31 g ai/ha, scale 0 to 100 (0 no effect, 100 complete control), 13 to 15 days, read-out: Plant response rating, Wheat) was 0%, the plant injury at 62 g/ha ([12]; Postemergence, 62 g ai/ha, scale 0 to 100 (0 no effect, 100 complete control), read-out: Plant response rating, Wheat) was 5% and the pest or weed control at 125 g/ha ([13]; 125 g ai/ha, 0 to 100 scale where 0 is no effect and 100 is complete control, read-out: Plant response rating, Barnyardgrass) was 100%. For the same compound, the pest or weed control at 500 g/ha ([13]; 500 g ai/ha, 0 to 100 scale, 0 no effect, 100 complete control, read-out: Plant response rating Barnyardgrass) was 100%, the pest or weed control at 125 g/ha ([14]; 125 g ai/ha, postemergence, read-out: Plant response rating (0 to 100), Nutsedge, Yellow) was 5% and the pest or weed control at 250 g/ha ([14]; 250 g ai/ha, postemergence, read-out: Plant response rating (0 to 100), Nutsedge, Yellow) was 25%. For the same compound, the pest or weed control at 31 g/ha ([14]; Postemergence, 31 g ai/ha, scale 0 to 100 (0 no effect, 100 complete control), 13 to 15 days, read-out: Plant response rating, Nutsedge, Yellow) was 5%, the pest or weed control at 62 g/ha ([14]; Postemergence, 62 g ai/ha, scale 0 to 100 (0 no effect, 100 complete control), read-out: Plant response rating, Nutsedge, Yellow) was 5% and the plant injury at 62 g/ha ([15]; 62 g ai/ha, preemergence, scale 0 (no effect) to 100 (complete control), read-out: Wheat plant response rating) was 35%. It also gave a plant injury at 125 g/ha ([15]; 125 g ai/ha, preemergence, scale 0 (no effect) to 100 (complete control), read-out: Wheat plant response rating) of 85%, a plant injury at 250 g/ha ([15]; 250 g ai/ha, preemergence, scale 0 (no effect) to 100 (complete control), read-out: Wheat plant response rating) of 90% and a plant injury at 31 g/ha ([15]; Preemergence, 31 g ai/ha, scale 0 to 100, 0 no effect, 100 complete control, read-out: Plant response rating, Wheat) of 10%.
